In patent publication US11866416B2, “Streptococcus mutans glucosyl transferase inhibitors for dental caries therapy” (UAB Research Foundation, priority 2018, dated 2024):
Where two headings read alike, the source gives them in different places.

What was measured:
S. mutans = test: microbe, parasite or virus in culture; format: cell-based, Streptococcus mutans; conditions: for MIC50: Streptococcus mutans, Table 2, >300 = no inhibition up to 300 μM, read-out: Growth Inhibition MIC50
Description: Cell viability of S. mutans, S. gordonii, S. sanguinis, Aggregatibacter actinomycetemcomitans and Actinomyces. […] The number of colony-forming units (CFU) per milliliter of each sample treated with selected compounds at different concentrations was enumerated after incubation for 24 h at 37° C. and compared to the values obtained from the DMSO control group. Overnight broth cultures were transferred by 1:50 dilutions into fresh THB medium and were allowed to grow until mid-exponential phase (OD470 nm 0.6) before transfer to 96-well plates containing desired concentration of the compound. After 16 h incubation, bacterial growth was measured at OD470, and normalized to the DMSO control (100%).
Cell viability of S. mutans and commensal S. gordonii and S. sanguinis. Effects of lead small molecules on cell viability were examined. The number of colony-forming units (CFU) per milliliter for each compound at different concentrations was determined after incubation for 24 h at 37° C. and compared to the values obtained from the DMSO control group.
Cell viability of S. mutans and commensal S. gordonii and S. sanguinis. […] DMSO served as a control group and provided a relative comparison for the number of colony-forming units (CFU) per milliliter for each compound at different concentrations was determined after incubation for 24 h at 37° C. The final concentration of DMSO used in the assays was 1%.

S. mutans biofilm = S. mutans biofilm formation and inhibition assay (96-well plates, crystal violet); format: cell-based, Streptococcus mutans
Description: Biofilm assays using 96-well flat-bottom polystyrene microtiter plates were performed to evaluate S. mutans biofilm formation at various conditions as described (Liu et al. (2011) Antimicrobial Agents and Chemotherapy 55, 2679; Zhang et al. (2015) International Journal of Antimicrobial Agents 46, 174), the disclosures of which are incorporated herein by reference in their entirety). Each assay was replicated three times. Compounds that inhibited biofilm formation at minimum concentration (MBIC) were determined by serial dilutions.
S. mutans biofilm formation and inhibition assays. […] Each assay was replicated three times. Minimum biofilm inhibitory concentration (MBIC) of compounds was determined by serial dilutions.
S. mutans biofilm formation and inhibition assays. Biofilm assays using 96-well flat-bottom polystyrene microtiter plates were performed to evaluate S. mutans biofilm formation at various conditions as described. Each assay was replicated […]. Compounds that inhibited 50% biofilm formation were determined by serial dilutions.
S. mutans biofilm formation and inhibition assays. A well-established protocol to study S. mutans biofilm formation in 96-well flat-bottom polystyrene microtiter plates was used, in triplicate (Mattos-Graner, R. O.; Napimoga, M. H.; Fukushima, K.; Duncan, M. J.; Smith, D. J., Comparative analysis of Gtf isozyme production and diversity in isolates of Streptococcus mutans with different biofilm growth phenotypes. Journal of clinical microbiology 2004, 42 (10), 4586-4592). The stock solutions were made up in 100% DMSO, and final concentration of DMSO used in the assays was 1%. Minimum biofilm inhibitory concentration (MBIC) of compounds was determined by serial dilutions.

[1] = Streptococcus mutans, Table 1, >500 = no inhibition up to 500 μM, read-out: Biofilm Inhibition IC50
[2] = Streptococcus mutans, Table 2, read-out: Biofilm Inhibition IC50
[3] = Table 6, chalcones, 200 μM, NI = no inhibition
[4] = Streptococcus mutans, Table 5, >500 = no inhibition up to 500 μM, read-out: Biofilm Inhibition IC50
[5] = Streptococcus mutans, Table 3, read-out: Biofilm Inhibition IC50

| Structure (SMILES) | MIC50 (S. mutans) [µM] | IC50 (S. mutans biofilm; [1]) [µM] | IC50 (S. mutans biofilm; [2]) [µM] | further results |
| --- | --- | --- | --- | --- |
| COC(=O)c1ccccc1NC(=O)c1cc2ccccc2s1 [BE] | > 300 | 74.9 | 74.9 |  |
| COC(=O)c1ccccc1NC(=O)c1cnc2ccccc2c1 [BF] |  | 446 |  |  |
| O=C(Nc1ccccc1I)c1cnc2ccccc2c1 [BG] |  | > 500 |  |  |
| CCc1ccccc1NC(=O)c1cnc2ccccc2c1 [BH] |  | 204 |  |  |
| O=C(Nc1ccccc1Br)c1cc2cc([N+](=O)[O-])ccc2s1 [BI] | > 300 | 122 | 122 |  |
| CC(C)c1ccccc1NC(=O)c1cc2cc([N+](=O)[O-])ccc2s1 [BJ] |  | 262 |  |  |
| CC(C)c1ccccc1NC(=O)c1cnc2ccccc2c1 [BK] |  | > 500 |  |  |
| CCc1ccccc1NC(=O)c1cc2cc([N+](=O)[O-])ccc2s1 [BL] | > 300 | 158 | 158 |  |
| O=C(Nc1ccccc1F)c1cc2cc([N+](=O)[O-])ccc2s1 [BM] | > 300 | 162 | 162 |  |
| NC(=O)c1ccc(NC(=O)c2ccc3ccccc3c2O)cc1 [BN] | > 300 | 56.9 | 56.9 |  |
| NC(=O)c1cccc(NC(=O)c2ccccc2-c2ccccc2)c1 [BO] | > 300 | 49.4 | 49.4 |  |
| NC(=O)c1cccc(NC(=O)c2ccc3ccccc3c2O)c1 [BP] |  | 270 |  |  |
| NC(=O)c1ccccc1NC(=O)c1cccc2ccccc12 [BQ] |  | 446 |  |  |
| NC(=O)c1ccc(NC(=O)c2cccc3ccccc23)cc1 [BR] | > 300 | 167 | 167 |  |
| NC(=O)c1cccc(NC(=O)c2cccc3ccccc23)c1 [BS] | > 300 | 195 | 195 |  |
| Cc1ccc(S(=O)(=O)Nc2ccccc2N)cc1 [BU] |  | > 500 |  |  |

| Structure (SMILES) | MIC50 (S. mutans) [µM] | IC50 (S. mutans biofilm; [1]) [µM] | IC50 (S. mutans biofilm; [2]) [µM] | further results |
| --- | --- | --- | --- | --- |
| NC(=O)c1ccc(NC(=O)c2cc3cc([N+](=O)[O-])ccc3s2)cc1 [BV] |  | 395 |  |  |
| NCc1cccc(NC(=O)c2cc3ccccc3s2)c1 [BX] | > 300 | 209 | 209 |  |
| COc1ccc2[nH]c(C(=O)Nc3ccc(C(N)=O)cc3)cc2c1 [BY] |  | > 500 |  |  |
| COC(=O)c1ccc(NC(=O)c2cc3cc([N+](=O)[O-])ccc3[nH]2)cc1 [BZ] | > 300 | 196 |  |  |
| O=C(/C=C/c1cccc(O)c1)c1ccccc1O [Compound 2] |  |  |  | Growth inhibition 200 μM (%) (S. mutans; [3]): 86 ± 0.5%; IC50 (S. mutans; Table 6, chalcones, NI = no inhibition, read-out: S. mutans Growth IC50): 32 ± 0.3 µM; Biofilm inhibition 200 μM (%) (S. mutans biofilm; [3]): 84 ± 3%; IC50 (S. mutans biofilm; Table 6, chalcones, read-out: S. mutans Biofilm IC50): 64 ± 4 µM |
| NC(=O)c1ccccc1NC(=O)c1cc2ccccc2s1 [Compound 3B] | > 300 | 45.6 | 45.6 |  |
| COC(=O)c1ccccc1NC(=O)c1cc2cc([N+](=O)[O-])ccc2s1 [Compound 3C] |  | > 500 |  |  |
| O=C(Nc1ccccc1)c1cc2cc([N+](=O)[O-])ccc2s1 [Compound 3D] |  | > 500 |  | IC50 (S. mutans biofilm; [4]): > 500 µM |
| NC(=O)c1ccccc1NC(=O)c1cc2ccccc2[nH]1 [Compound 3E] |  | > 500 |  |  |
| NC(=O)c1ccccc1NC(=O)c1cc2cc([N+](=O)[O-])ccc2[nH]1 [Compound 3H] |  | > 500 |  |  |
| O=C(Nc1ccccc1)c1cnc2ccccc2c1 [Compound 3L] |  | > 500 |  | IC50 (S. mutans biofilm; [4]): > 500 µM |
| NC(=O)c1ccc(NC(=O)c2cnc3ccccc3c2)cc1 [Compound 3T] |  | > 500 |  |  |
| COc1ccc(/C=C/C(=O)c2ccc3c(c2)OCO3)cc1O [Compound 14] |  |  |  | effect on S. mutans biofilm in the preliminary screen (S. mutans biofilm; chalcones, 200 μM): no anti-biofilm effects |
| O=c1c(O)c(-c2cc(O)c(O)c(O)c2)oc2cc(O)ccc12 [PAY] |  |  |  | IC50 (S. mutans biofilm; [5]): 74.5 ± 9.8 µM |
| O=c1c(O)c(-c2ccc(O)cc2)oc2ccccc12 [SN-II-78] |  |  |  | IC50 (S. mutans biofilm; [5]): 200 ± 10 µM |
